The subject of one assay is ERK1/2. Briefly: ERK1/2 degradation in A375 cells, immunoblot. In kind it is cell-based. Conditions: for ERK1/2 degradation: then Tz-thalidomide-Me 10 μM 18 h.
The target of the next assay is BRD4 (Homo sapiens, UniProt O60885). As to the kind of experiment: BRD4 degradation in HeLa cells, immunoblot. In kind it is cell-based. (A western blot detects proteins with antibodies after separation by electrophoresis.)

Structures are written as SMILES.

Regarding `Cc1nnc(-c2ccc(CNC(=O)CCCCCOc3cccc4c3C(=O)N(C3CCC(=O)N(C)C3=O)C4=O)cc2)nn1` (stereo not drawn) [Tz-thalidomide-Me], the ERK1/2 degradation result in the assay on ERK1/2 (Probe 1 4 h) is recorded as “insignificant degradation of ERK1/2”; with ERK1/2 (Probe 1 4 h, listed as methyl-Tz-thalidomide), “reduced ERK1/2 degradation”. Further, on BRD4 (JQ1-TCO 10 μM 18 h, then Tz-thalidomide-Me 10 μM 18 h), the BRD4 level result is “remained unchanged”.

Turning to `CC(C)C[C@H](NC(=O)[C@H](CCc1ccccc1)NC(=O)CN1CCOCC1)C(=O)N[C@@H](Cc1ccccc1)C(=O)N[C@@H](CC(C)C)C(=O)[C@@]1(C)CO1` [carfilzomib], the “ERK1/2 degradation with proteasome inhibitor” value in the assay on ERK1/2 (4-h pretreatment with carfilzomib 1 μM, Probe 1 and Tz-thalidomide) is listed as “ERK1/2 degradation was prevented”. In addition, the “BRD4 levels with proteasome inhibitor” value on BRD4 (4-h pretreatment with carfilzomib 1 μM, JQ1-TCO and Tz-thalidomide treatment) was “BRD4 levels were rescued”.

On to `O=C1CCC(N2C(=O)c3ccccc3C2=O)C(=O)N1` (stereo not drawn) [thalidomide], for which the “ERK1/2 degradation, competition” value in the assay on ERK1/2 (Probe 1 4 h, then untagged thalidomide 10 μM and Tz-thalidomide 1 μM 18 h) is “degradation of ERK1/2 was suppressed”.
